# ChEMBL document CHEMBL1150795, “Sultam thiourea inhibition of West Nile virus” (Antimicrob Agents Chemother, 2007)
# pEC50: −log10 of the molar value. The source made the active and inactive calls. The calls are words filed in the database; no cut-off is given here.
# Legend:
# West Nile virus [1] = test: Antiviral activity against West Nile virus NY 1999 infected in african green monkey Vero cells assessed as reduction of virus yield administered 2 hrs postinfection; assay type: functional, organism-based
# West Nile virus [2] = test: Antiviral activity against West Nile virus NY 1999 infected in african green monkey Vero cells assessed as reduction of viral E protein level by immunofluorescence method; assay type: functional, organism-based
# West Nile virus [3] = test: Antiviral activity against West Nile virus NY 1999 infected in african green monkey Vero cells assessed as reduction of virus yield after 5 days post infection at 2.3 uM relative to control; assay type: functional
# [4] = Cytotoxicity against african green monkey Vero cells after 48 hrs by MTS method; assay type: cell-based; conditions: chlorocebus sabaeus
# [5] = Cytotoxicity against african green monkey Vero cells by trypan blue exclusion assay; assay type: cell-based; conditions: chlorocebus sabaeus
# West Nile virus [6] = test: Antiviral activity against West Nile virus NY 1999 infected in african green monkey Vero cells assessed as reduction of viral RNA level by RT-PCR relative to control; assay type: functional
# [7] = test system: Human immunodeficiency virus 1; test: Antiviral activity against HIV1 in 293 cells assessed as reduction of viral replicon after 48 hrs by luciferase based reporter gene assay relative to control; assay type: functional, organism-based; conditions: HEK293
# [8] = test system: Japanese encephalitis virus; test: Antiviral activity against Japanese encephalitis virus SA14-2-8 infected in african green monkey Vero cells assessed as reduction of virus yield relative to control; assay type: functional, organism-based
# Human adenovirus 5 = test: Antiviral activity against human adenovirus 5; assay type: functional, organism-based
# [9] = Selectivity index, ratio of CC50 for african green monkey Vero cells to EC50 for West Nile virus NY 1999; assay type: toxicity, cell-based; conditions: read-out: Ratio CC50/EC50
# Prospect Hill virus = test: Antiviral activity against Prospect Hill Hantavirus; assay type: functional, organism-based; conditions: Orthohantavirus prospectense
# West Nile virus [10] = test: Antiviral activity against West Nile virus NY 1999 infected in african green monkey Vero cells assessed as reduction of virus yield relative to control; assay type: functional, organism-based
# West Nile virus [11] = test: Antiviral activity against West Nile virus NY 1999 infected in african green monkey Vero cells assessed as reduction of viral E protein level by immunoblot method; assay type: functional, organism-based
# [12] = test system: Human immunodeficiency virus 1; test: Antiviral activity against HIV1; assay type: functional, organism-based
# West Nile virus [13] = test: Antiviral activity against West Nile virus in BHK cells assessed as reduction of viral replicon after 48 hrs by luciferase based reporter gene assay relative to control; assay type: functional
# West Nile virus [14] = test: Antiviral activity against West Nile virus NY 1999 infected in african green monkey Vero cells assessed as reduction of virus yield after 5 days post infection at 23 uM relative to control; assay type: functional
# Vero = test: Cytotoxicity against african green monkey Vero cells at 23 uM after 48 hrs by MTS method; assay type: cell-based; conditions: chlorocebus sabaeus
SMILES,Activity (West Nile virus [1]),Activity (West Nile virus [2]),fold change (FC) (West Nile virus [3]),CC50 at 48 h [4] [µM],CC50 [5] [µM],Activity (West Nile virus [6]),Activity [7],pEC50 [8],Activity (Human adenovirus 5),selectivity ratio [9],Activity (Prospect Hill virus),pEC50 (West Nile virus [10]),Activity (West Nile virus [11]),Activity [12],fold change (FC) (West Nile virus [13]),fold change (FC) (West Nile virus [14]),Activity (Vero)
O=S1(=O)CS/C(=N\C(=S)N(c2ccccc2)c2ccccc2)N1c1ccccc1,Active,Active,100,> 70,> 70,>100,inactive,5.15,Active,> 100,Active,6.15,Active,Active,>20,100,Non-toxic
CC(C)N(C(=S)/N=C1\SCS(=O)(=O)N1c1ccccc1)C(C)C,,,,> 80,,,,5.10,,,,4.10,,,,,
CC(C)N(C(=S)/N=C1\SC(C)S(=O)(=O)N1C)C(C)C (stereo unspecified),,,,90,,,,4.52,,,,4.52,,,,,
O=S1(=O)CS/C(=N\C(=S)N(Cc2ccccc2)Cc2ccccc2)N1c1ccccc1,,,,65,,,,4.19,,,,4.66,,,,,
